ChEMBL document CHEMBL1201862, “PubChem BioAssay data set” (2004)
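Cultured in 96-well plates, cells were exposed to test compound for 48 hours across five concentrations. At the GI50, growth is halved.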 Active and inactive are the calls of the source. Rule as the data show it: active = GI50 up to about 1.1 µM and inactive = higher.

Key:
Test in all cases: inhibition of tumour cell growth, NCI panel, 48 h
[1] = system: A498
[2] = system: BT-549
[3] = system: COLO 205
[4] = system: DU-145
[5] = system: HCT-116
[6] = system: HCT-15
[7] = system: HOP-92
[8] = system: K562
[9] = system: KM12
[10] = system: M14
[11] = system: MDA-MB-231
[12] = system: MDA-MB-435
[13] = system: NCI-H460
[14] = system: NCI/ADR-RES
[15] = system: OVCAR-5
[16] = system: PC-3
[17] = system: RXF 393
[18] = system: SK-MEL-2
[19] = system: SNB-19
[20] = system: SW-620

## COc1cc2c(cc1OC)-c1cc3cc(OC)c(OC)cc3c(=O)n1CC2
[1]
  GI50: 7.59 µM (inactive)
[2]
  GI50: 37.3 µM (inactive)
[3]
  GI50: 26.5 µM (inactive)
[4]
  GI50: 4.57 µM (inactive)
[5]
  GI50: 16.3 µM (inactive)
[6]
  GI50: 38.5 µM
[7]
  GI50: 2.34 µM (inactive)
[8]
  GI50: 10.4 µM (inactive)
[9]
  GI50: > 50.5 µM (inactive)
[10]
  GI50: 27 µM (inactive)
[11]
  GI50: 14.8 µM (inactive)
[12]
  GI50: 31.6 µM (inactive)
[13]
  GI50: > 25.6 µM (inactive)
[14]
  GI50: 21.7 µM (inactive)
[15]
  GI50: > 62.2 µM (inactive)
[16]
  GI50: 21.2 µM (inactive)
[17]
  GI50: 17.3 µM (inactive)
[18]
  GI50: 11.5 µM (inactive)
[19]
  GI50: 20.7 µM (inactive)
[20]
  GI50: 9.51 µM (inactive)

## Cc1ccc(C(=O)/C=C2\Nc3ccccc3NC2=O)cc1
[1]
  GI50: 20.5 µM (inactive)
[2]
  GI50: 22.2 µM (inactive)
[3]
  GI50: > 100 µM (inactive)
[4]
  GI50: 4.69 µM (inactive)
[5]
  GI50: 2.17 µM (inactive)
[6]
  GI50: 56.6 µM
[7]
  GI50: 3.28 µM (inactive)
[8]
  GI50: > 100 µM (inactive)
[9]
  GI50: 17.1 µM (inactive)
[10]
  GI50: 9.27 µM (inactive)
[11]
  GI50: 2.78 µM (inactive)
[12]
  GI50: 10.9 µM (inactive)
[13]
  GI50: 6.43 µM (inactive)
[14]
  GI50: 5.13 µM (inactive)
[15]
  GI50: 29.4 µM (inactive)
[16]
  GI50: 4.84 µM (inactive)
[17]
  GI50: 2.42 µM (inactive)
[18]
  GI50: 4.11 µM (inactive)
[19]
  GI50: 10.6 µM (inactive)

## CCOC1OC(CO)C(O)CC1n1ccc(=O)[nH]c1=O (centres undefined)
[1]
  GI50: > 100 µM (inactive)
[2]
  GI50: > 100 µM (inactive)
[3]
  GI50: > 100 µM (inactive)
[4]
  GI50: > 100 µM (inactive)
[5]
  GI50: > 100 µM (inactive)
[6]
  GI50: > 100 µM
[7]
  GI50: > 100 µM (inactive)
[8]
  GI50: > 100 µM (inactive)
[9]
  GI50: > 100 µM (inactive)
[10]
  GI50: > 100 µM (inactive)
[11]
  GI50: > 100 µM (inactive)
[12]
  GI50: > 100 µM (inactive)
[13]
  GI50: > 100 µM (inactive)
[14]
  GI50: > 100 µM (inactive)
[15]
  GI50: > 100 µM (inactive)
[16]
  GI50: > 100 µM (inactive)
[17]
  GI50: > 100 µM (inactive)
[18]
  GI50: > 100 µM (inactive)
[19]
  GI50: > 100 µM (inactive)
[20]
  GI50: > 100 µM (inactive)

## CCCCCCCCCCC(O)C1CCC(C(O)CCC(O)C2CCC(CCCCCCC[C@H](O)CC3=C[C@@H](C)OC3=O)O2)O1 (some centres undefined)
[1]
  GI50: 22.2 µM (inactive)
[2]
  GI50: 0.001 µM (active)
[3]
  GI50: > 100 µM (inactive)
[4]
  GI50: > 10 µM (inactive)
[5]
  GI50: < 0.033 µM (active)
[6]
  GI50: > 53.1 µM
[7]
  GI50: 11.6 µM (inactive)
[9]
  GI50: 6.1 µM (inactive)
[10]
  GI50: > 100 µM (inactive)
[11]
  GI50: > 10 µM (inactive)
[12]
  GI50: 6.28 µM (inactive)
[13]
  GI50: > 22.9 µM (inactive)
[14]
  GI50: 0.957 µM (active)
[15]
  GI50: > 100 µM (inactive)
[16]
  GI50: > 10 µM (inactive)
[17]
  GI50: 5.81 µM (inactive)
[18]
  GI50: > 100 µM (inactive)
[19]
  GI50: 3.66 µM (inactive)
[20]
  GI50: > 51.4 µM (inactive)

## Cc1ccnc2nc3[nH]c4ccccc4c3cc12
[1]
  GI50: > 100 µM (inactive)
[2]
  GI50: 48 µM (inactive)
[3]
  GI50: > 100 µM (inactive)
[4]
  GI50: > 100 µM (inactive)
[5]
  GI50: > 100 µM (inactive)
[6]
  GI50: > 100 µM
[7]
  GI50: > 100 µM (inactive)
[8]
  GI50: > 100 µM (inactive)
[9]
  GI50: > 100 µM (inactive)
[10]
  GI50: > 100 µM (inactive)
[11]
  GI50: > 100 µM (inactive)
[12]
  GI50: > 100 µM (inactive)
[13]
  GI50: > 100 µM (inactive)
[14]
  GI50: > 100 µM (inactive)
[15]
  GI50: > 100 µM (inactive)
[16]
  GI50: > 100 µM (inactive)
[17]
  GI50: > 100 µM (inactive)
[18]
  GI50: > 100 µM (inactive)
[20]
  GI50: > 100 µM (inactive)

## CC/C(Cl)=N\OC(=O)Nc1ccc(F)cc1F
[1]
  GI50: 28.3 µM (inactive)
[2]
  GI50: 2.38 µM (inactive)
[3]
  GI50: 1.91 µM (inactive)
[4]
  GI50: 17.6 µM (inactive)
[5]
  GI50: 6.62 µM (inactive)
[6]
  GI50: 2.34 µM
[7]
  GI50: 1.93 µM (inactive)
[8]
  GI50: 0.244 µM (active)
[9]
  GI50: 19.9 µM (inactive)
[10]
  GI50: 7.6 µM (inactive)
[11]
  GI50: 17.5 µM (inactive)
[12]
  GI50: 17 µM (inactive)
[13]
  GI50: 29.1 µM (inactive)
[14]
  GI50: 17.8 µM (inactive)
[15]
  GI50: 17.9 µM (inactive)
[16]
  GI50: 17.7 µM (inactive)
[17]
  GI50: 12.8 µM (inactive)
[18]
  GI50: 17.4 µM (inactive)
[19]
  GI50: 25.4 µM (inactive)
[20]
  GI50: 1.93 µM (inactive)

## N=C(N)c1ccc(/N=N\c2c(O)ccc3c2[nH]c2ccccc23)cc1
[1]
  GI50: 77.3 µM (inactive)
[2]
  GI50: 49.8 µM (inactive)
[3]
  GI50: 21.7 µM (inactive)
[4]
  GI50: 34.6 µM (inactive)
[5]
  GI50: 3.31 µM (inactive)
[6]
  GI50: 39.1 µM
[7]
  GI50: 98.6 µM (inactive)
[8]
  GI50: 1.63 µM (inactive)
[9]
  GI50: 1.85 µM (inactive)
[10]
  GI50: 36.1 µM (inactive)
[11]
  GI50: 2.09 µM (inactive)
[12]
  GI50: 3.39 µM (inactive)
[13]
  GI50: 2.76 µM (inactive)
[14]
  GI50: 58.1 µM (inactive)
[15]
  GI50: 41.5 µM (inactive)
[16]
  GI50: 9.73 µM (inactive)
[17]
  GI50: 53.1 µM (inactive)
[18]
  GI50: 20.3 µM (inactive)
[19]
  GI50: 2.47 µM (inactive)
[20]
  GI50: 2.32 µM (inactive)

## CC(C)(C)c1cc(C(O)(C(=O)O)C(=O)O)cc(C(C)(C)C)c1O
[1]
  GI50: > 100 µM (inactive)
[2]
  GI50: > 100 µM (inactive)
[3]
  GI50: > 100 µM (inactive)
[4]
  GI50: > 100 µM (inactive)
[5]
  GI50: > 100 µM (inactive)
[6]
  GI50: > 100 µM
[7]
  GI50: > 100 µM (inactive)
[8]
  GI50: > 100 µM (inactive)
[9]
  GI50: > 100 µM (inactive)
[10]
  GI50: > 100 µM (inactive)
[11]
  GI50: > 100 µM (inactive)
[12]
  GI50: > 100 µM (inactive)
[14]
  GI50: > 100 µM (inactive)
[15]
  GI50: > 100 µM (inactive)
[16]
  GI50: > 100 µM (inactive)
[17]
  GI50: > 100 µM (inactive)
[18]
  GI50: > 100 µM (inactive)
[19]
  GI50: > 100 µM (inactive)
[20]
  GI50: > 100 µM (inactive)

## COC(=O)/C(C#N)=C(\Nc1ccccc1)N1CCCC1
[1]
  GI50: > 100 µM (inactive)
[2]
  GI50: > 100 µM (inactive)
[3]
  GI50: > 100 µM (inactive)
[4]
  GI50: > 100 µM (inactive)
[5]
  GI50: > 100 µM (inactive)
[6]
  GI50: > 100 µM
[7]
  GI50: > 100 µM (inactive)
[8]
  GI50: > 100 µM (inactive)
[10]
  GI50: > 100 µM (inactive)
[11]
  GI50: > 100 µM (inactive)
[12]
  GI50: > 100 µM (inactive)
[13]
  GI50: > 100 µM (inactive)
[14]
  GI50: > 100 µM (inactive)
[15]
  GI50: > 100 µM (inactive)
[16]
  GI50: > 100 µM (inactive)
[17]
  GI50: > 100 µM (inactive)
[18]
  GI50: > 100 µM (inactive)
[19]
  GI50: > 100 µM (inactive)
[20]
  GI50: > 100 µM (inactive)

## [N-]=[N+]=NC1=NNC2(C(=O)N1)c1ccccc1-c1ccccc12
[1]
  GI50: > 100 µM (inactive)
[2]
  GI50: > 100 µM (inactive)
[3]
  GI50: > 100 µM (inactive)
[4]
  GI50: > 100 µM (inactive)
[5]
  GI50: 14.2 µM (inactive)
[6]
  GI50: > 100 µM
[7]
  GI50: > 100 µM (inactive)
[8]
  GI50: > 100 µM (inactive)
[10]
  GI50: > 100 µM (inactive)
[11]
  GI50: > 100 µM (inactive)
[12]
  GI50: 17.4 µM (inactive)
[13]
  GI50: > 100 µM (inactive)
[14]
  GI50: > 100 µM (inactive)
[15]
  GI50: > 100 µM (inactive)
[16]
  GI50: > 100 µM (inactive)
[17]
  GI50: > 100 µM (inactive)
[18]
  GI50: > 100 µM (inactive)
[19]
  GI50: > 100 µM (inactive)
[20]
  GI50: > 100 µM (inactive)

## C/C(=N\Nc1nc2ccccc2o1)c1cccc[n+]1[O-]
[1]
  GI50: 45.1 µM (inactive)
[2]
  GI50: 81.7 µM (inactive)
[3]
  GI50: 4.73 µM (inactive)
[4]
  GI50: 27.8 µM (inactive)
[5]
  GI50: 4.84 µM (inactive)
[6]
  GI50: 4.88 µM
[7]
  GI50: 2.53 µM (inactive)
[8]
  GI50: 7.23 µM (inactive)
[9]
  GI50: 23.2 µM (inactive)
[10]
  GI50: 5.87 µM (inactive)
[11]
  GI50: 60.3 µM (inactive)
[12]
  GI50: 44 µM (inactive)
[13]
  GI50: 9.18 µM (inactive)
[14]
  GI50: 3.6 µM (inactive)
[15]
  GI50: 11.4 µM (inactive)
[16]
  GI50: 5.36 µM (inactive)
[17]
  GI50: 24.6 µM (inactive)
[18]
  GI50: > 100 µM (inactive)
[19]
  GI50: 64.7 µM (inactive)
[20]
  GI50: 5.12 µM (inactive)
